Experimental data taken from ChEMBL document CHEMBL5143555, “Potentiating the intracellular killing of Staphylococcus aureus by dihydroquinazoline analogues as NorA efflux pump inhibitor” (Bioorg Med Chem, 2022).
In brackets after ≈: the same amount, converted by molar mass. Activity calls are given as the source filed them. The calls are words filed in the database; no cut-off is given here.

Assays:
[1] = molecular target: T1, Quinolone resistance protein NorA (Staphylococcus aureus) (UniProt P0A0J7); experiment: Inhibition of NorA in Staphylococcus aureus 1199B assessed as potentiation of ethidium bromide-induced antibacterial activity by measuring ethidium bromide MIC at sub MIC relative to ethidium bromide MIC alone
T1 sequence (whole entry): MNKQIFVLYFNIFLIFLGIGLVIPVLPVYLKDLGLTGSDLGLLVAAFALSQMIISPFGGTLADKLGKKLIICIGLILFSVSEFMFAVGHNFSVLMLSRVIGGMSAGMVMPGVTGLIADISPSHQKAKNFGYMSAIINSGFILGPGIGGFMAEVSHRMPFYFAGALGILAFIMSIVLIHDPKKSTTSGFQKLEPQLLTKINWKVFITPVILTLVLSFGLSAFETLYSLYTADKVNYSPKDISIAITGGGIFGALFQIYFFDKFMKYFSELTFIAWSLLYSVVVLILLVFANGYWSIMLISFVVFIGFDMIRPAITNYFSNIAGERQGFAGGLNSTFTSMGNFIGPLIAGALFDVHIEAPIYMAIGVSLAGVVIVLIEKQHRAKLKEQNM

[2] = molecular target: T1, Quinolone resistance protein NorA (Staphylococcus aureus); experiment: Inhibition of NorA in Staphylococcus aureus 1199B assessed as potentiation of norfloxacin-induced antibacterial activity by measuring fractional inhibitory concentration
[3] = molecular target: T1, Quinolone resistance protein NorA (Staphylococcus aureus); experiment: Inhibition of NorA in Staphylococcus aureus 1199B assessed as potentiation of norfloxacin-induced antibacterial activity by measuring Norfloxacin MIC at sub MIC
[4] = molecular target: T1, Quinolone resistance protein NorA (Staphylococcus aureus); experiment: Inhibition of NorA in Staphylococcus aureus 1199B assessed as accumulation of norfloxacin at 2.5 ug/ml by measuring fluorescence intensity measured at 5 mins interval for 40 mins by fluorescence spectrophotometry; settings: dose 2.5 µg/ml
[5] = molecular target: T1, Quinolone resistance protein NorA (Staphylococcus aureus); experiment: Inhibition of NorA in Staphylococcus aureus 1199B assessed as potentiation of norfloxacin-induced antibacterial activity by measuring Norfloxacin MIC at sub MIC relative to norfloxacin MIC alone
[6] = molecular target: T1, Quinolone resistance protein NorA (Staphylococcus aureus); experiment: Inhibition of NorA in Staphylococcus aureus 1199B assessed as potentiation of ethidium bromide-induced antibacterial activity by measuring fractional inhibitory concentration
[7] = molecular target: T1, Quinolone resistance protein NorA (Staphylococcus aureus); experiment: Inhibition of NorA in Staphylococcus aureus 1199B assessed as potentiation of ethidium bromide-induced antibacterial activity by measuring ethidium bromide MIC at sub MIC
[8] = molecular target: T1, Quinolone resistance protein NorA (Staphylococcus aureus); experiment: Inhibition of NorA in Staphylococcus aureus 1199B assessed as accumulation of ethidium bromide at 2.5 ug/ml by measuring fluorescence intensity measured at 5 mins interval for 40 mins by fluorescence spectrophotometry; settings: dose 2.5 µg/ml
[9] = tested on: Staphylococcus aureus; experiment: Antibacterial activity against Staphylococcus aureus 1199B measured after 24 hrs by Muller Hinton broth based MTT assay; format: functional
[10] = tested on: Staphylococcus aureus; experiment: Down regulation of NorA gene expression in Staphylococcus aureus 1199B at 3.9 ug/ml measured after 2 hrs by qRT-PCR analysis; format: functional; settings: dose 3.9 µg/ml
[11] = molecular target: T1, Quinolone resistance protein NorA (Staphylococcus aureus); experiment: Inhibition of NorA in Staphylococcus aureus 1199B infected human THP-1 cells assessed as potentiation of norfloxacin-induced bactericidal activity by measuring log reduction in bacterial count measured after 24 hrs relative to vancomycin; format: cell-based
[12] = molecular target: T1, Quinolone resistance protein NorA (Staphylococcus aureus); experiment: Inhibition of NorA in Staphylococcus aureus 1199B assessed as accumulation of ethidium bromide at 3.9 ug/ml by measuring fluorescence intensity measured at 5 mins interval for 40 mins by fluorescence spectrophotometry; settings: dose 3.9 µg/ml
[13] = molecular target: T1, Quinolone resistance protein NorA (Staphylococcus aureus); experiment: Inhibition of NorA in Staphylococcus aureus 1199B infected human THP-1 cells assessed as potentiation of norfloxacin-induced bactericidal activity by measuring reduction in intracellular proliferation at modulatory concentration measured after 24 hrs; format: cell-based
[14] = tested on: Staphylococcus aureus; experiment: Down regulation of NorA gene expression in Staphylococcus aureus 1199B at 1.55 ug/ml measured after 2 hrs in presence of norfloxacin by qRT-PCR analysis relative to norfloxacin; format: functional; settings: dose 1.55 µg/ml
[15] = molecular target: T1, Quinolone resistance protein NorA (Staphylococcus aureus); experiment: Inhibition of NorA in Staphylococcus aureus 1199B infected human THP-1 cells assessed as potentiation of norfloxacin-induced bactericidal activity by measuring reduction in bacterial count at modulatory concentration measured after 24 hrs; format: cell-based
[16] = molecular target: T1, Quinolone resistance protein NorA (Staphylococcus aureus); experiment: Inhibition of NorA in Staphylococcus aureus 1199B assessed as potentiation of norfloxacin-induced morphological changes by measuring appearance of lysed cell at sub MIC by field emission scanning electron microscopy
[17] = tested on: Staphylococcus aureus; experiment: Antibacterial activity against Staphylococcus aureus 1199 measured after 24 hrs by Muller Hinton broth based MTT assay; format: functional
[18] = tested on: Staphylococcus aureus; experiment: Down regulation of NorA gene expression in Staphylococcus aureus 1199B at 1.55 ug/ml measured after 2 hrs by qRT-PCR analysis relative to control; format: functional; settings: dose 1.55 µg/ml
[19] = molecular target: T1, Quinolone resistance protein NorA (Staphylococcus aureus); experiment: Inhibition of NorA in Staphylococcus aureus 1199B assessed as potentiation of 3.1 ug/mL norfloxacin-induced bactericidal activity by measuring log reduction in bacterial count at 7.8 ug/mL measured after 4 hrs by time-kill kinetics assay; settings: dose 7.8 µg/ml
[20] = tested on: Staphylococcus aureus; experiment: Antibacterial activity against Staphylococcus aureus K1758 measured after 24 hrs by Muller Hinton broth based MTT assay; format: functional
[21] = molecular target: T1, Quinolone resistance protein NorA (Staphylococcus aureus); experiment: Inhibition of NorA in Staphylococcus aureus 1199B infected human THP-1 cells assessed as potentiation of norfloxacin-induced bactericidal activity by measuring reduction in bacterial count at modulatory concentration measured after 24 hrs relative to control; format: cell-based
[22] = molecular target: T1, Quinolone resistance protein NorA (Staphylococcus aureus); experiment: Inhibition of NorA in Staphylococcus aureus 1199B infected human THP-1 cells assessed as potentiation of 3.1 ug/ml norfloxacin-induced bactericidal activity by measuring log reduction in bacterial count at 15.6 ug/ml measured after 24 hrs relative to control; format: cell-based; settings: dose 15.6 µg/ml
[23] = molecular target: T1, Quinolone resistance protein NorA (Staphylococcus aureus); experiment: Inhibition of NorA in Staphylococcus aureus 1199B infected human THP-1 cells assessed as potentiation of norfloxacin-induced bactericidal activity by measuring reduction in intracellular invasion at modulatory concentration measured after 24 hrs; format: cell-based
[24] = Cytotoxicity against kidney epithelial cells (unknown origin) assessed as cell viability at 50 ug/mL measured after 24 hrs by alamar blue assay relative to control; format: toxicity, cell-based, Fetal kidney cell; settings: at 50 µg/mL, read-out: Activity
[25] = molecular target: T1, Quinolone resistance protein NorA (Staphylococcus aureus); experiment: Inhibition of NorA in Staphylococcus aureus 1199B assessed as potentiation of 3.1 ug/mL ethidium bromide-induced bactericidal activity by measuring log reduction in bacterial count at sub MIC measured within 4 hrs by time-kill kinetics assay
[26] = molecular target: T1, Quinolone resistance protein NorA (Staphylococcus aureus); experiment: Inhibition of NorA in Staphylococcus aureus 1199B assessed as accumulation of norfloxacin at 3.9 ug/ml by measuring fluorescence intensity measured at 5 mins interval for 40 mins by fluorescence spectrophotometry; settings: dose 3.9 µg/ml
[27] = molecular target: T1, Quinolone resistance protein NorA (Staphylococcus aureus); experiment: Inhibition of NorA in Staphylococcus aureus 1199B infected human THP-1 cells assessed as potentiation of norfloxacin-induced bactericidal activity by measuring reduction in bacterial count at 1.7 to 3.4 ug/ml measured after 24 hrs relative to control; format: cell-based; settings: dose 1.7-3.4 µg/ml
[28] = tested on: Staphylococcus aureus; experiment: Up regulation of NorA gene expression in Staphylococcus aureus 1199B at 1.55 ug/ml measured after 2 hrs by qRT-PCR analysis relative to control; format: functional; settings: dose 1.55 µg/ml
[29] = tested on: Staphylococcus aureus; experiment: Bactericidal activity against Staphylococcus aureus 1199B at 50 ug/mL by time-kill kinetics assay; format: functional, organism-based; settings: dose 50.0 µg/ml
[30] = tested on: Staphylococcus aureus; experiment: Bactericidal activity against Staphylococcus aureus 1199B assessed as bacterial count at 3.1 ug/mL measured after 24 hrs by time-kill kinetics assay; format: functional; settings: dose 3.1 µg/ml
[31] = tested on: Staphylococcus aureus; experiment: Bactericidal activity against Staphylococcus aureus 1199B assessed as log reduction in bacterial count at 50 ug/mL measured after 8 hrs by time-kill kinetics assay; format: functional; settings: dose 50 µg/ml
[32] = molecular target: T1, Quinolone resistance protein NorA (Staphylococcus aureus); experiment: Inhibition of NorA in Staphylococcus aureus 1199B assessed as potentiation of 3.1 ug/mL norfloxacin-induced bactericidal activity by measuring log reduction in bacterial count at 7.8 ug/mL measured after 8 hrs by time-kill kinetics assay; settings: dose 7.8 µg/ml
[33] = molecular target: T1, Quinolone resistance protein NorA (Staphylococcus aureus); experiment: Inhibition of NorA in Staphylococcus aureus 1199B assessed as potentiation of ethidium bromide-induced bactericidal activity at 7.8 ug/ml measured after 24 hrs by time-kill kinetics assay; settings: dose 7.8 µg/ml
[34] = molecular target: T1, Quinolone resistance protein NorA (Staphylococcus aureus); experiment: Inhibition of NorA in Staphylococcus aureus 1199B assessed as potentiation of norfloxacin-induced morphological changes by measuring appearance of plicated and with cracked surface at sub MIC by field emission scanning electron microscopy
[35] = tested on: Staphylococcus aureus; experiment: Up regulation of NorA gene expression in Staphylococcus aureus 1199B at 3.9 ug/ml measured after 2 hrs in presence of norfloxacin by qRT-PCR analysis relative to control; format: functional; settings: dose 3.9 µg/ml
[36] = tested on: Staphylococcus aureus; experiment: Up regulation of NorA gene expression in Staphylococcus aureus 1199B at 3.9 ug/ml measured after 2 hrs by qRT-PCR analysis relative to control; format: functional; settings: dose 3.9 µg/ml

Structure (SMILES) | fold change (FC) [1] | fractional inhibitory concentration index (FICI) [2] | MIC [3] | fold change (FC) [5] | fractional inhibitory concentration index (FICI) [6] | MIC [7] | MIC [9] | FC [11] | Flu intensity [12] | inhibition [13] | Activity [15] | MIC [17] | MIC [20] | fold change (FC) [21] | FC [22] | inhibition [23] | viability at 24 h, 50 ug/mL [24] | Flu intensity [26] | also measured
N#CC(C#N)=NNc1cccc(Cl)c1 [CARBONYL CYANIDE M-CHLOROPHENYLHYDRAZONE] | 16 | 0.625 | 6.2 µg/mL | 8 | 0.562 | 3.1 µg/mL | 20 µg/mL (≈ 97.7 µM) |  |  |  |  |  |  |  |  |  |  |  | Flu intensity [4]: 695; Flu intensity [8]: 149
Fc1ccccc1C1=NC(c2ccco2)Nc2ccc(Cl)cc21 (stereo not drawn) | 16 | 0.078 | 3.1 µg/mL | 16 | 0.125 | 3.1 µg/mL | 500 µg/mL (≈ 1530 µM) | 3 | 248 | Active | 4.68 log10CFU/ml | 125 µg/mL (≈ 383 µM) | 3.9 µg/mL (≈ 11.9 µM) | 4 | 5 | Active | 95.3% | 28700 | Activity [10]: Active; fold change (FC) [14]: 9; inhibition [16]: Active; fold change (FC) [18]: 8; Activity [19]: > 3 log10CFU/ml; Activity [25]: > 3 log10CFU/ml
CN[C@H](CC(C)C)C(=O)N[C@H]1C(=O)N[C@@H](CC(N)=O)C(=O)N[C@H]2C(=O)N[C@H]3C(=O)N[C@H](C(=O)N[C@H](C(=O)O)c4cc(O)cc(O)c4-c4cc3ccc4O)[C@H](O)c3ccc(c(Cl)c3)Oc3cc2cc(c3O[C@@H]2O[C@H](CO)[C@@H](O)[C@H](O)[C@H]2O[C@H]2C[C@](C)(N)[C@H](O)[C@H](C)O2)Oc2ccc(cc2Cl)[C@H]1O [VANCOMYCIN] |  |  |  |  |  |  | 1.7 µg/mL (≈ 1.17 µM) |  |  |  |  | 0.42 µg/mL (≈ 0.29 µM) | 0.1 µg/mL (≈ 0.069 µM) |  |  |  |  |  | fold change (FC) [27]: 2
CCn1cc(C(=O)O)c(=O)c2cc(F)c(N3CCNCC3)cc21 [NORFLOXACIN] |  |  |  |  |  |  | 50 µg/mL (≈ 157 µM) |  |  |  |  | 1.56 µg/mL (≈ 4.89 µM) | 0.2 µg/mL (≈ 0.626 µM) |  |  |  |  |  | fold change (FC) [28]: 0.076; inhibition [29]: Active; Activity [30]: 6 log10CFU/ml
CC[n+]1c(-c2ccccc2)c2cc(N)ccc2c2ccc(N)cc21.[Br-] [HOMIDIUM BROMIDE] |  |  |  |  |  |  | 50 µg/mL |  |  |  |  |  |  |  |  |  |  |  | Activity [31]: >3 log10CFU/ml
Brc1ccc(C2=NC(c3ccc(Br)cc3)Nc3ccccc32)cc1 (stereo not drawn) | 4 | 0.078 | 3.1 µg/mL | 16 | 0.266 | 12.5 µg/mL | 500 µg/mL (≈ 1130 µM) | 3 | 127 | Active | 4.13 log10CFU/ml | 125 µg/mL (≈ 283 µM) | 15.6 µg/mL (≈ 35.3 µM) | 4 | 5 | Active | 93.6% | 13000 | Activity [32]: > 3 log10CFU/ml; inhibition [33]: Active; inhibition [34]: Active; fold change (FC) [35]: 3; fold change (FC) [36]: 3
